Consider 35 compounds from patent publication US20230069886A1, “AROMATIC SULPHONAMIDES DERIVATIVES THAT INHIBITS PDI A3, THEIR SYNTHESIS AND USE” (Uniwersytet Jagiellonski, priority 2020, published 2023).

Structures are written as SMILES. Some results are limits rather than exact numbers.

The first series has as its target T1, PDI A3 (Homo sapiens, UniProt P30101).
T1 construct: purchased Mybiosource; host or cells: E. coli
T1 sequence (P30101 25-505): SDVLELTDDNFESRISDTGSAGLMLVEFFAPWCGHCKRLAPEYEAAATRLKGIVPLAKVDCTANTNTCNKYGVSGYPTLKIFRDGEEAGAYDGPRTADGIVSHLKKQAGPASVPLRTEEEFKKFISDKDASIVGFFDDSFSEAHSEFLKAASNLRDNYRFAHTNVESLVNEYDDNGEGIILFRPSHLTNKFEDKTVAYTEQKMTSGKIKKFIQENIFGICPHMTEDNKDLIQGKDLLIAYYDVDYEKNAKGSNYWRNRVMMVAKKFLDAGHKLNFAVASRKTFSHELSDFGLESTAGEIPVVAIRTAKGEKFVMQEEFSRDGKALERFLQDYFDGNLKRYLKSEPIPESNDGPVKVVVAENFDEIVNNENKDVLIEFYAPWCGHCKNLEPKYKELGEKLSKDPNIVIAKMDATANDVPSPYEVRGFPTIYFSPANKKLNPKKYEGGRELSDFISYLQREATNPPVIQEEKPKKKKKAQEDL
The series can be described thus: PDI A3 inhibition, insulin turbidimetric assay. It counts as biochemical. To be noted: 10 ug/ml PDI A3, incubated 60 min at 37° C., turbidity at 650 nm; read-out: Inhibition of PDI A3 (EC 50). As to the method:
The inhibitory effects compounds of invention on activity of PDIA3 was assess based on the insulin turbidimetric assay. Enzymatic activity of PDIA3 was confirmed by measuring the turbidity increase at 650 nm due to insulin reduction. The assay mixture was prepared by addition 10 ug/ml PDI A3 (E. coli recombinant protein; Mybiosource), […] phosphate buffer (pH7.6), 1 mM EDTA, 0.087 mM DTT and with or without tested compound and was incubated for 60 min, at 37° C. Reaction was started by addition of insulin and DTT. Final concentration of insulin and DTT in assay mixture were 0.15 mMv and 0.174 mMv, respectively. Turbidity was detected at 650 nm against reference samples without PDJs. The measurements were performed at 650 nm using 120-s recordings.
On to `COC(=O)C1CN1S(=O)(=O)c1cccnc1` (stereo not shown) [Compound C-3559, Methyl 1-(3-pyridylsulfonyl)aziridine-2-carboxylate], for which the EC50 was determined as 18.6 µM. Still for that read-out and setting: with `COC(=O)[C@H]1CN1S(=O)(=O)c1cccc2cc(N(C)C)ccc12` (stereo partly drawn) [Compound C-3570, Methyl (2R)-1-[[6-(dimethylamino)-1-naphthyl]sulfonyl]aziridine-2-carboxylate] the figure was 68.4 µM. On the same count and under the same terms, with `CN(C)C(=O)C1CN1S(=O)(=O)c1ccc(N(C)C)cc1` (stereo not shown) [Compound C-3357, 1-[4-(Dimethylamino)phenyl]sulfonyl-N,N-dimethyl-aziridine-2-carboxamide] the figure was > 200 µM.

On to `COC(=O)C1CN1S(=O)(=O)c1ccc(C)cc1F` (stereo not shown) [Compound C-3297, Methyl 1-(2-fluoro-4-methyl-phenyl)sulfonylaziridine-2-carboxylate], for which the EC50 was > 200 µM. On to `COC(=O)[C@@H]1CN1S(=O)(=O)c1cccc2cc(N(C)C)ccc12` (stereo partly drawn) [Compound C-3548, Methyl (2S)-1-[[6-(dimethylamino)-1-naphthyl]sulfonyl]aziridine-2-carboxylate], for which the EC50 was found to be 5.3 µM. Consider `CCCCCc1ccc(S(=O)(=O)N2CC2C(=O)OC)cc1` (stereo not shown) [Compound C-3281, Methyl 1-(4-pentylphenyl)sulfonylaziridine-2-carboxylate], for which the EC50 is > 200 µM.

As to `Cc1ccc(S(=O)(=O)N2CC2C#N)cc1` (stereo not shown) [Compound C-3314, 1-(p-Tolylsulfonyl)aziridine-2-carbonitrile], the EC50 was found to be 24 µM.

For `COC(=O)C1CN1S(=O)(=O)c1ccc(F)cc1F` (stereo not shown) [Compound C-3353, Methyl 1-(2,4-difluorophenyl)sulfonylaziridine-2-carboxylate], the EC50 is 143 µM.

On to `CC(=O)C1CN1S(=O)(=O)c1ccc(C)cc1` (stereo not shown) [Compound C-3263, 1-[1-(p-Tolylsulfonyl)aziridin-2-yl]ethanone], for which the EC50 is 98 µM. Still for that read-out and setting: the value for `COC(=O)C1CN1S(=O)(=O)c1ccc2oc(=O)ccc2c1` (stereo not shown) [Compound C-3355, Methyl 1-(2-oxochromen-6-yl)sulfonylaziridine-2-carboxylate] was 61 µM. Take `CN(C)C(=O)C1CN1S(=O)(=O)c1ccc2cc(N(C)C)ccc2c1` (stereo not shown) [Compound C-3398, 1-[[6-(Dimethylamino)-2-naphthyl]sulfonyl]-N,N-dimethylaziridine-2-carboxamide]: the EC50 was found to be 10.5 µM. Still for that read-out and setting: the value for `NC(=O)C1CN1S(=O)(=O)c1cccnc1` (stereo not shown) [Compound C-3562, 1-(3-pyridylsulfonyl)aziridine-2-carboxamide] was 56 µM; that for `COC(=O)C1CN1S(=O)(=O)c1ccc(C)cc1` (stereo not shown) [Compound C-3161, Methyl 1-(p-tolylsulfonyl)aziridine-2-carboxylate] was 27 µM. Same read-out and setting: the value for `CN(C)C(=O)C1CN1S(=O)(=O)c1ccc(C2CCCCC2)cc1` (stereo not shown) [Compound C-3384, 1-(4-Cyclohexylphenyl)sulfonyl-N,N-dimethyl-aziridine-2-carboxamide] was 11.7 µM; that for `COC(=O)C1CN1S(=O)(=O)c1ccc(C(F)(F)F)cc1` (stereo not shown) [Compound C-3256, Methyl 1-[4-(trifluoromethyl)phenyl]sulfonylaziridine-2-carboxylate] was > 200 µM. The same measure, in the same setting: the value for `CNc1ccc2cc(S(=O)(=O)N3CC3C(=O)OC)ccc2c1Cl` (stereo not shown) [Compound C-3393, Methyl 1-[[5-chloro-6-(methylamino)-2-naphthyl]sulfonyl]aziridine-2-carboxylate] was 27 µM; that for `CCCCCCCCCCCCc1ccc(S(=O)(=O)N2CC2C(=O)OC)cc1` (stereo not shown) [Compound C-3270, Methyl 1-(4-dodecylphenyl)sulfonylaziridine-2-carboxylate] was > 200 µM. As for `CCOC(=O)C1CN1S(=O)(=O)c1ccc(C)cc1` (stereo not shown) [Compound C-3537, Ethyl 1-(p-tolylsulfonyl)aziridine-2-carboxylate], the EC50 is 30 µM.

As for `CCCCCCc1ccc(S(=O)(=O)N2CC2C(=O)N2CCCC2)cc1` (stereo not shown) [Compound C-3511, [1-(4-Hexylphenyl)sulfonylaziridin-2-yl]-pyrrolidin-1-yl-methanone], the EC50 was 102 µM. Still for that read-out and setting: the value for `COC(=O)C1CN1S(=O)(=O)c1ccc([N+](=O)[O-])cc1` (stereo not shown) [Compound C-3212, Methyl 1-(4-nitrophenyl)sulfonylaziridine-2-carboxylate] was 32 µM; that for `COC(=O)C1CN1S(=O)(=O)c1ccc2[nH]c(=O)ccc2c1` (stereo not shown) [Compound C-3350, Methyl 1-[(2-oxo-1H-quinolin-6-yl)sulfonyl]aziridine-2-carboxylate] was 48 µM; that for `COC(=O)C1CN1S(=O)(=O)c1cccc(C)c1` (stereo not shown) [Compound C-3303, Methyl 1-(m-tolylsulfonyl)aziridine-2-carboxylate] was > 200 µM. On the same count and under the same terms, with `COC(=O)[C@@H]1CN1S(=O)(=O)c1ccc(C)cc1` (stereo partly drawn) [Compound C-3535, Methyl (2S)-1-(p-tolylsulfonyl)aziridine-2-carboxylate] the figure was 6.8 µM; with `COC(=O)C1CN1S(=O)(=O)c1cccc(C(F)(F)F)c1` (stereo not shown) [Compound C-3305, Methyl 1-[3-(trifluoromethyl)phenyl]sulfonylaziridine-2-carboxylate], > 200 µM. On to `CCCCCCc1ccc(S(=O)(=O)N2CC2C(=O)NC)cc1` (stereo not shown) [Compound C-3380, 1-(4-Hexylphenyl)sulfonyl-N-methyl-aziridine-2-carboxamide], for which the EC50 is 37 µM. For the compound `CCCCc1ccc(S(=O)(=O)N2CC2C(C)=O)cc1` (stereo not shown) [Compound C-3272, 1-[1-(4-Butylphenyl)sulfonylaziridin-2-yl]ethanone], the EC50 is 43 µM. For the compound `CN(C)C(=O)C1CN1S(=O)(=O)c1ccc(F)cc1F` (stereo not shown) [Compound C-3403, 1-(2,4-Difluorophenyl)sulfonyl-N,N-dimethyl-aziridine-2-carboxamide], the EC50 turned out to be 24 µM.

As to `CN(C)C(=O)C1CN1S(=O)(=O)c1ccc(N(C)C)c2ccccc12` (stereo not shown) [Compound C-3385, 1-[[4-(Dimethylamino)-1-naphthyl]sulfonyl]-N,N-dimethylaziridine-2-carboxamide], the EC50 stood at 11.1 µM.

Consider `NC(=O)C1CN1S(=O)(=O)c1ccccc1` (stereo not shown) [Compound C-3532, 1-(Benzenesulfonyl)aziridine-2-carboxamide], for which the EC50 was 9.3 µM. For the compound `CC(C)(C)c1ccc(S(=O)(=O)N2CC2C(N)=O)cc1` (stereo not shown) [Compound C-3591, 1-(4-tert-Butylphenyl)sulfonylaziridine-2-carboxamide], the EC50 came out at 29 µM. Same read-out and setting: with `COC(=O)C1CN1S(=O)(=O)c1cccc2ccccc12` (stereo not shown) [Compound C-3311, Methyl 1-(1-naphthylsulfonyl)aziridine-2-carboxylate] the figure was 90 µM; with `Cc1ccc(S(=O)(=O)N2CC2C(N)=O)cc1` (stereo not shown) [Compound C-3220, 1-(p-Tolylsulfonyl)aziridine-2-carboxamide], 22 µM.

Another series concerns MCF-7. The series can be described thus: MTT antiproliferative assay, 48 h, MCF-7. To be noted: Homo sapiens, MCF7, 48-hour exposition, read-out: Cytotoxicity, IC50, μM MCF-7. It counts as cell-based, human. As to the method: Anticancer activity of compounds of invention, PDI A3-inhibitors has been tested in vitro in classical antiproliferative assay in various cancer cells lines. Monolayer tumor cell lines MDA-MB-231 (human mammary breast adenocarcinoma), MCF-7 (human breast adenocarcinoma, estrogen-positive), HT-1080 (human fibrosarcoma) and Caco-2 (human colon adenocarcinoma) were cultured in standard medium DMEM (Dulbecco's modified Eagle's medium) (“Sigma”) supplemented with 10% foetal bovine serum (“Sigma”). About 2000-4000 cells per well (depending on line nature) were placed in 96-well plates and after 24 h compounds were added to the wells. Untreated cells were used as a control. The plates were incubated for 48 h, 37° C., 5% CO2. The number of surviving cells was determined using 3-(4,5-dimethylthiazol-2-yl)-2,5-diphenyltetrazolinium bromide (MTT). MTT-test: after incubating culture medium was removed and 200 μL fresh medium with 20 μL MTT (2 mg/mL in HBSS) was added in each well of the plate. After incubation (3 hr., 37° C., 5% CO2), the medium with MTT was removed and 200 μL DMSO were added at once to each sample. The samples were tested at 540 nm on Thermo Scientific Multiskan EX microplate photometer. The half-maximal inhibitory concentration (IC50) of each compound was calculated using Graph Pad Prism® 3.0.
For orientation: Tetrazolium dyes change colour on reduction, which living cells bring about.
Broadly, the IC50 is the concentration at which inhibition is half-maximal. For `CCCCCCc1ccc(S(=O)(=O)N2CC2C(=O)OC)cc1` (stereo not shown) [Compound C-3287, Methyl 1-(4-hexylphenyl)sulfonylaziridine-2-calboxylate], the IC50 was determined as 123 ± 17 µM. Still for that read-out and setting: with `COC(=O)C1CN1S(=O)(=O)c1ccc(C(C)(C)C)cc1` (stereo not shown) [Compound C-3290, Methyl 1-(4-tert-butylphenyl)sulfonylaziridine-2-carboxylate] the figure was 29 ± 4 µM.

Test system in a further series: not given
Assay: not given
Settings: not given
For orientation: melting point means the temperature, or range, at which the solid turns liquid. Take `COC(=O)C1CN1S(=O)(=O)c1ccc2oc(=O)ccc2c1` (stereo not shown) [Compound C-3355, Methyl 1-(2-oxochromen-6-yl)sulfonylaziridine-2-carboxylate]: the melting point fell in the range of 42 to 44 °C. For `NC(=O)C1CN1S(=O)(=O)c1cccnc1` (stereo not shown) [Compound C-3562, 1-(3-pyridylsulfonyl)aziridine-2-carboxamide], the melting point is 147 to 149 °C. The compound `CNc1ccc2cc(S(=O)(=O)N3CC3C(=O)OC)ccc2c1Cl` (stereo not shown) [Compound C-3393, Methyl 1-[[5-chloro-6-(methylamino)-2-naphthyl]sulfonyl]aziridine-2-carboxylate] showed a melting point of 170 to 172 °C.

Take `NC(=O)C1CN1S(=O)(=O)c1ccc(N)cc1` (stereo not shown) [Compound C-3218, 1-(4-Aminophenyl)sulfonylaziridine-2-carboxamide]: the melting point fell in the range of 139 to 141 °C. In the case of `COC(=O)C1CN1S(=O)(=O)c1ccc([N+](=O)[O-])cc1` (stereo not shown) [Compound C-3212, Methyl 1-(4-nitrophenyl)sulfonylaziridine-2-carboxylate], the melting point lay within 106 to 108 °C. Still for that read-out and setting: the value for `COC(=O)C1CN1S(=O)(=O)c1ccc2[nH]c(=O)ccc2c1` (stereo not shown) [Compound C-3350, Methyl 1-[(2-oxo-1H-quinolin-6-yl)sulfonyl]aziridine-2-carboxylate] was 139 to 141 °C.
